Legend:
[1] = system: AAR of C. albicans WT 9517 cells; test: AAR activity of cells grown in different media; type: cell-based
Method: Yeast strains were maintained on yeast extract-peptone-dextrose medium (YEPD). Minimal medium (MM) consisted of 1% dextrose and 0.67% yeast nitrogen base without amino acid. Minimal medium was supplemented with L-lysine (50 μg/ml) where appropriate. Escherichia coli strains were maintained on Luria Bertani medium. Plasmid containing strains were maintained in L-agar containing ampicillin at a concentration of 50 μg/ml.
(§1) Cells were grown in appropriate media at 30° C. with constant shaking and harvested during the late logarithmic phase. Crude enzyme preparations were obtained by disruption of the cells in a Braun homogenizer flask in the case of S. cerevisiae (Sinha and Bhattacharjee 1971), and by vortexing with glass beads for 30 s with 30 s intervals at 4° C. for a total of 5 mins in case of C. albicans. The crude extracts were dialyzed and used as the enzyme source for the AAR activity. The amount of protein in the dialyzed extracts was determined according to the procedure of Bradford (1976).
The AAR activity was assayed using previously described procedure (Sagisaka and Shimura 1962). […]
The AAR activity of C. albicans WT 9517 cells was determined for cells grown in minimal medium, minimal medium supplemented with lysine, and YEPD. […]

[2] = system: LYS2 mRNA; test: Northern blot analysis of LYS2 mRNA; type: cell-based; conditions: C. albicans WT9517 grown in minimal medium supplemented with lysine
Method: Total RNA was isolated from C. albicans WA95 17 cells grown in different media according to the procedure described by Sherman et al. (1986). Total RNA (20 μg/lane) was fractionated by electrophoresis on a 1% agarose gel, transferred to nylon membranes, and hybridized to LYS2 gene and 18 s rDNA radio-labelled probes. The 2.0 kb EcoRI PstI fragment of the LYS2 gene was labelled with [a^32P]DTP by a random primer kit (Gibco BRL) and used as a probe. A plasmid carrying the 18S rDNA was also labeled similarly and used as ribosomal probe. Hybridization was carried out at 60° C. in 0.5 M Sodium phosphate (pH 7.2), 7% SDS, 1% BSA, 1 mM EDTA (pH 8.0). The membrane was washed in 2×SSC and 0.1% SDS at room temperature for 30 min and followed by a wash in 0.5×SSC and 0.1% SDS at 60° C. for 30 min. The membrane was stripped by boiling in 0.1×SSC and 0.1% SDS for 30 min followed by washing with water at 65° C. for 30 min and then reprobed.
To determine if the LYS2 gene expression is controlled at the transcriptional level by lysine and by other amino acids in rich medium, total RNA was extracted from C. albicans WT9517 grown in minimal medium, minimal medium supplemented with lysine, and in YEPD medium. The blot was quantitated using a beta scanner and the AMBIS Image analysis software. […] The LYS2 mRNA level in YEPD grown cells could not be detected. […]

[3] = target: T1, α-aminoadipate reductase (AAR) (Candida albicans, UniProt Q12572); test: Feedback inhibition of aminoadipate reductase activity in dialyzed cell extract; type: biochemical; conditions: for AAR activity: cell extract alone 19.76
T1 construct: The crude extracts were dialyzed and used as the enzyme source for the AAR activity; endogenous in cells; host or cells: C. albicans cells, dialyzed crude extract
T1 sequence (Q12572 1-1391): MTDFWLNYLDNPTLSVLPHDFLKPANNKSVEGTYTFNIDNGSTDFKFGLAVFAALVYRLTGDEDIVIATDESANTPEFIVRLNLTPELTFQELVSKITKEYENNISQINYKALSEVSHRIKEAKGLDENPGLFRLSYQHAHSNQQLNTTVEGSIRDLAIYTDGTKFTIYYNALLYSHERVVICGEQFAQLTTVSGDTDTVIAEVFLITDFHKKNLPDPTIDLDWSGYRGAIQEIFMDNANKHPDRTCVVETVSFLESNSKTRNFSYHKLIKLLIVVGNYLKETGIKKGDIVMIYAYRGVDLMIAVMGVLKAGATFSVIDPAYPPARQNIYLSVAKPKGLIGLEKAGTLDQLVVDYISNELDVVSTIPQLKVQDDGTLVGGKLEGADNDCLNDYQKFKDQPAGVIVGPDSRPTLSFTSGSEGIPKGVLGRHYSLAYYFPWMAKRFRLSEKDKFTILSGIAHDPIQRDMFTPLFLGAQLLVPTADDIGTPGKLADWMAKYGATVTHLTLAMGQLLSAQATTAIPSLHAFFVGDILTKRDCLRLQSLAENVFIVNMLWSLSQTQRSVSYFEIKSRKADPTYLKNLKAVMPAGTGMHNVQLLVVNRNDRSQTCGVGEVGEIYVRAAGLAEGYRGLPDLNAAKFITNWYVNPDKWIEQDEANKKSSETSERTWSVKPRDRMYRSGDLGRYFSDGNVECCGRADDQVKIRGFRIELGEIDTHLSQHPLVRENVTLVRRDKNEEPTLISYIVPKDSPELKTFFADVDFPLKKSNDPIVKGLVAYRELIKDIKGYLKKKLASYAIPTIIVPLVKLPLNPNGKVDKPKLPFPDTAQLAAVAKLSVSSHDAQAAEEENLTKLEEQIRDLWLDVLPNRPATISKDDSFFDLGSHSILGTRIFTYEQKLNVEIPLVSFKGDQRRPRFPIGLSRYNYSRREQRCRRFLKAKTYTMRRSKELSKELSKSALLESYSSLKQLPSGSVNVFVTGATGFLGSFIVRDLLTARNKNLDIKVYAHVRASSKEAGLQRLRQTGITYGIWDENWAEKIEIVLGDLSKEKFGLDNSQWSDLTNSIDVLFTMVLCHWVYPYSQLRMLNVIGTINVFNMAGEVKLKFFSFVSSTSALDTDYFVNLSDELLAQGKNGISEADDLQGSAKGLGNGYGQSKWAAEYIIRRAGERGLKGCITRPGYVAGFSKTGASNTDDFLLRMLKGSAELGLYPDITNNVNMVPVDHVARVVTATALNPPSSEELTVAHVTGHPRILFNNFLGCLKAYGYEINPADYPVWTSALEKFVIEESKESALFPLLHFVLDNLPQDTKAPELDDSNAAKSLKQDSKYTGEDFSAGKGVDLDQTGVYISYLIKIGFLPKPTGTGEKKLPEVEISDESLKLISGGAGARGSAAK
Method: as §1
The AAR activity was assayed using previously described procedure (Sagisaka and Shimura 1962). The reaction mixture consisted of DL aminoadipate, 12.5 mM; ATP, 15 mM; MgCl2, 10 mM; reduced glutathione, 1 mM; α-NADPH (tetra sodium salt), 0.625 mM; and Tris HCl, 250 mM (pH8.0). Dialysed cell extract was added to a final concentration of 0.02-1.0 mg of dialyzed protein. Tubes lacking aminoadipate were used as controls. The reaction mixtures were incubated at 30 ° C. for 1 h and terminated by the addition of Iml of 2% p-dimethylaminobenzaldehyde (PDAB) in 2-methoxyethanol. Activity of AAR was reported in units of A460 h-^1 mg protein-^1.
Feedback inhibition by the end product, lysine, was determined by addition of various concentrations of lysine to the reaction mixture. 50 mM lysine inhibited the AAR activity by 70%. However, when a lysine analog, [S-(2-amino ethyl)] L-Cysteine L-thialysine), was used, 1 mM thialysine was sufficient to abolish 92% of the enzyme activity (Table 5).

[4] = cell extract + 1 mM inhibitor in reaction mixture
[5] = cell extract + 10 mM inhibitor in reaction mixture

SMILES	repression of AAR activity compared to cells grown in minimal medium ([1]; cells grown in minimal medium supplemented with lysine) [%]	AAR activity ([1]; cells grown in minimal medium supplemented with lysine (L-lysine 50 μg/ml), minimal medium alone 19.79) [A460 h^−1 mg protein^−1]	level of LYS2 mRNA compared to cells grown in minimal medium [2]	AAR activity [3, 4] [A460 h^−1 mg protein^−1]	AAR activity [3, 5] [A460 h^−1 mg protein^−1]	AAR activity ([3]; cell extract + 50 mM inhibitor in reaction mixture) [A460 h^−1 mg protein^−1]	inhibition at 50000 µM ([3]; read-out: inhibition of AAR activity) [%]	inhibition at 1000 µM ([3]; 1 mM in reaction mixture, read-out: inhibition of AAR enzyme activity) [%]
NCCCC[C@H](N)C(=O)O [lysine, L-lysine]	40	11.87	significantly lower	19.34	9.68	5.92	70	
NCCSC[C@H](N)C(=O)O [thialysine, [S-(2-amino ethyl)] L-Cysteine]				3.58	1.78			92
